In patent publication US5559232A, “Carboxamides” (Hoffmann-La Roche Inc., priority 1993, dated 1996):

Key:
human thrombin = human thrombin (Homo sapiens, UniProt P00734); assay: inhibition of the amidolytic activity of thrombin (chromogenic substrate S-2238); type: biochemical; conditions: for Ki: human thrombin 0.5 nM, substrate S-2238, pH 7.8, room temperature; for q (ratio of the inhibition of trypsin to the inhibition of thrombin): specificity: Ki trypsin / Ki thrombin
Procedure: A differential inhibition of thrombin and other serine proteases by the above compounds is desirable in order to obtain compounds having as high a specificity as possible and at the same time to avoid possible side-effects.
Specific chromogenic peptide substrates can be used to determine the inhibition of the catalytic activity of the above proteases. The inhibition of the amidolytic activity of thrombin and trypsin by the above guanidines was determined as described hereinafter.
The measurements were carried out on microtitre plates at room temperature. For this, in each well of the plate 150 μl of buffer (50 mM Tris, 100 mM NaCl, 0.1% polyethylene glycol; pH 7.8) were mixed with 50 μl of the inhibitor dissolved in DMSO and diluted in the buffer, and 25 μl of human thrombin (0.5 nM final conc.) were added. After incubation for 10 minutes the reaction was started by the addition of chromogenic substrate S-2238 (H-D-Phe-Pip-Arg-paranitroaniline from Kabivitrum; 10 or 50 μm final conc.) and the hydrolysis of the substrate was followed spectrophotometrically on a kinetic microtiter plate reader for 5 minutes. After graphical presentation of the inhibition curves the Ki values were determined according to the method described in Blochem. J. 55, 1955, 170-171.

trypsin = assay: inhibition of the amidolytic activity of trypsin (chromogenic substrate S-2251); type: biochemical; conditions: substrate S-2251, 200 and 750 μM, otherwise analogous to thrombin

Row | SMILES | Ki (human thrombin) [µM] | q (ratio of the inhibition of trypsin to the inhibition of thrombin) (human thrombin) | Ki (trypsin) [µM]
1 | N=C(N)N1CCC[C@@H](CNC(=O)C[C@H](NS(=O)(=O)N2CCOCC2)C(=O)N(CCNC(=O)c2cnccn2)C2CC2)C1 [Example 24, (S)-N4-[(S)-1-(amino-imino-methyl)-piperidin-3-ylmethyl]-N1-cyclopropyl-2-morpholin-4-ylsulphonylamino-N1-(2-pyrazin-2-ylcarbonylamino-ethyl)-succinamide] | 0.0012 | 5917 | 7.1
2 | N=C(N)N1CCC[C@@H](CNC(=O)C[C@H](NS(=O)(=O)N2CCOCC2)C(=O)N(CCNC(=O)c2ccc(=O)[nH]n2)C2CC2)C1 [Example 25] | 0.0013 | 5538 | 7.2
